Assay results published in PMC8242589, “Cardiac Safety of Kinase Inhibitors – Improving Understanding and Prediction of Liabilities in Drug Discovery Using Human Stem Cell-Derived Models” (Frontiers in Cardiovascular Medicine, 2021).

Legend:
[1] = tested on: hSC-CMs (Cor.4U Cardiomyocytes); assay: CardioExcyte 96 impedance and EFP recording (beating rate, base impedance); assay type: cell-based, human; conditions: for BR / Base Imp / activity at 0.01 µM / activity at 0.1 µM / activity at 1 µM / activity at 10 µM: vs baseline before drug (taken as 100%); for activity at 0.01 µM / activity at 0.1 µM / activity at 1 µM / activity at 10 µM: Homo sapiens, Cardiomyocyte
Procedure: Cor.4U® Cardiomyocytes (Ncardia, Netherlands) were cultured in 96-well plates at density of 25,000 – 30,000 cells per well. Cells were maintained at 5% CO2 and 37 °C for 4 days prior to experiments.
Functional monitoring of cardiomyocytes was done using CardioExcyte® 96 (Nanion technologies GmbH, Germany). Extracellular field potential (EFP) and impedance signals were recorded from hSC-CMs that formed monolayers in the wells of the NSP-96 plate. Beating Rate (BR, per minute) was calculated as the reciprocal of the inter-spike interval (ISI) in EFP signal. Impedance signals from spontaneously beating hSC-CMs were recorded with a sampling rate of 1 ms (1 kHz), and EFP data were collected at 0.1ms (10 kHz). Data acquisition was controlled by CardioExcyte® 96 Control software as previously described ([22]). The functional parameters recorded in each concentration of test items were compared to the base line values before drug addition (taken as 100%) to define fractional change.

ROCK2 = conditions: ref [36] (RKI-1447), [37], [38] (Fasudil), [39]–[43] (Y-27632), [44], [45] (GSK-429286); read-out: Target IC50 ROCK2; cited from earlier work
[2] = tested on: hSC-CMs (Cor.4U Cardiomyocytes); assay: ATP assay (CellTiter-Glo Luminescent Cell Viability Assay); assay type: cell-based, human; conditions: for ATP / viability at 0.01 µM / viability at 0.1 µM / viability at 1 µM / viability at 10 µM: normalized to time-matched DMSO control; for viability at 0.01 µM / viability at 0.1 µM / viability at 1 µM / viability at 10 µM: Homo sapiens, Cardiomyocyte
Procedure: Cor.4U® Cardiomyocytes (Ncardia, Netherlands) were cultured in 96-well plates at density of 25,000 – 30,000 cells per well. Cells were maintained at 5% CO2 and 37 °C for 4 days prior to experiments. The cell culture medium (Cor4U® Complete Culture Medium, cat# Ax-M-HC250E, Axiogenesis AG, Cologne, Germany) was changed every 24 h and was replaced by serum-free BMCC medium (cat# Ax-M-BMCC259, Axiogenesis AG, Cologne, Germany) 12 h prior to drug addition.
The CellTiter-Glo Luminescent Cell Viability Assay (cat# G7572, Promega, USA) was performed for quantification of the cellular ATP concentration according to manufacturer's instructions. Plates were shaken for 2 min in the dark, incubated at ambient temperature for 10 min before measuring luminescence (Integration time 0.1 seconds per well) with Luminescence Counter (Synergy H1, BioTek Instruments, Inc., Winooski, Vermont). The measured ATP concentration values were normalized to the time-matched DMSO controls. Data are representative of at least three replicates per concentration.

[3] = tested on: hSC-CMs (Cor.4U Cardiomyocytes); assay: Apoptosis assay (CellEvent Caspase-3/7 Green, IncuCyte ZOOM kinetics over 24 h); assay type: cell-based, human; design: key to Caspase / Caspase MEAN: % of time-matched vehicle control (green object area); conditions: for Caspase / activity at 0.01 µM / activity at 0.1 µM / activity at 1 µM / activity at 10 µM: normalized to time-matched vehicle control; for activity at 0.01 µM / activity at 0.1 µM / activity at 1 µM / activity at 10 µM: Homo sapiens, Cardiomyocyte
Procedure: Cor.4U® Cardiomyocytes ([…], Netherlands) were cultured in 96-well plates at density of 25,000 - 30,000 cells per well. Cells were maintained at 5% CO2 and 37 °C for 4 days prior to experiments. […] The plates were incubated 2 h before compound treatment in the IncuCyte ZOOM (ESSEN BioScience, Ann Arbor, Michigan) to set a baseline before the 24 h compound treatment. […] Imaging was done using 10x microscope objective of the IncuCyteZOOM with four images per well-taken every 2 h in both phase-contrast and green fluorescence. The fluorescent nuclear signal of the apoptotic cells was separated from background with the integrated object counting algorithm, adjusted to cardiomyocytes, and the calculated total green object area per well (μm^2/well) plotted against time. Data were normalized to those of the time-matched vehicle control. Data were representative of at least three replicates per concentration.

PI3K p110γ = conditions: ref [23]–[25] (NVP-BEZ235), [28] (GDC-0941), [33] (CAL-101), [35] (CZC24832); read-out: Target IC50 p110γ; cited from earlier work
PI3K p110β = conditions: ref [23]–[25] (NVP-BEZ235), [27] (LY 294002), [28] (GDC-0941), [32] (TGX-221), [33] (CAL-101), [35] (CZC24832); read-out: Target IC50 p110β; cited from earlier work

C[C@@H](N)C1CCC(C(=O)Nc2ccncc2)CC1.Cl.Cl (stereo partly drawn) [Y-27632]
Effect on beating rate, in words [1]: reduced cardiomyocyte beating at both 2 h and 24 h time points
BR ([1]; 0.3 µM, 2h): 101
Base Imp ([1]; 0.3 µM, 2h): 89
BR ([1]; 0.3 µM, 24h): 95
Base Imp ([1]; 0.3 µM, 24h): 88
BR ([1]; 3 µM, 2h): 99
Base Imp ([1]; 3 µM, 2h): 89
BR ([1]; 3 µM, 24h): 100
Base Imp ([1]; 3 µM, 24h): 85
BR ([1]; 30 µM, 2h): 99
Base Imp ([1]; 30 µM, 2h): 80
BR ([1]; 30 µM, 24h): 101
Base Imp ([1]; 30 µM, 24h): 67
BR ([1]; 300 µM, 2h): 76
Base Imp ([1]; 300 µM, 2h): 61
BR ([1]; 300 µM, 24h): 68
Base Imp ([1]; 300 µM, 24h): 54
Secondary beats at 300 uM, MEAN ([1]; 300 uM, unlabelled side calculation under the 24h data): 103.939
IC50 (ROCK2): 0.089 µM
ATP ([2]; 0.3 µM, 2h): 105
ATP ([2]; 0.3 µM, 24h): 100
ATP ([2]; 3 µM, 2h): 102
ATP ([2]; 3 µM, 24h): 101
ATP ([2]; 30 µM, 2h): 103
ATP ([2]; 30 µM, 24h): 103
ATP ([2]; 300 µM, 2h): 109
ATP ([2]; 300 µM, 24h): 104
Caspase ([3]; 0.3 µM, 2h): 119
Caspase ([3]; 0.3 µM, 24h): 94
Caspase ([3]; 3 µM, 2h): 163
Caspase ([3]; 3 µM, 24h): 129
Caspase ([3]; 30 µM, 2h): 104
Caspase ([3]; 30 µM, 24h): 163
Caspase ([3]; 300 µM, 2h): 96
Caspase ([3]; 300 µM, 24h): 306
Time of notable raise in the caspase-3/7 activity ([3]; highest test concentrations only): 12 to 18 h
Apoptosis (caspase-3/7 activity) at the highest test concentration, in words ([3]; top / highest test concentration, over 24 h): slow initial phase followed by a notable raise in the caspase-3/7 activity

CC(C)(C)NS(=O)(=O)c1cncc(-c2cc(F)c3nc(N)nn3c2)c1 [CZC24832]
IC50 (PI3K p110γ): 0.027 µM
activity at 0.01 µM ([1]; 2h, read-out: BR): 100%
activity at 0.01 µM ([1]; 2h, read-out: Base Imp): 98%
activity at 0.01 µM ([1]; 24h, read-out: BR): 96%
activity at 0.01 µM ([1]; 24h, read-out: Base Imp): 99%
activity at 0.1 µM ([1]; 2h, read-out: BR): 95%
activity at 0.1 µM ([1]; 2h, read-out: Base Imp): 98%
activity at 0.1 µM ([1]; 24h, read-out: BR): 98%
activity at 0.1 µM ([1]; 24h, read-out: Base Imp): 97%
activity at 1 µM ([1]; 2h, read-out: BR): 97%
activity at 1 µM ([1]; 2h, read-out: Base Imp): 96%
activity at 1 µM ([1]; 24h, read-out: BR): 98%
activity at 1 µM ([1]; 24h, read-out: Base Imp): 93%
activity at 10 µM ([1]; 2h, read-out: BR): 94%
activity at 10 µM ([1]; 2h, read-out: Base Imp): 93%
activity at 10 µM ([1]; 24h, read-out: BR): 97%
activity at 10 µM ([1]; 24h, read-out: Base Imp): 89%
Change in the hSC-CMs parameters (surface plots: beating rate, base impedance, ATP) ([1]; hSC-CMs, 2 and 24 h): below 20%
Effect on hSC-CMs function (base impedance and beating rate), in words ([1]; hSC-CMs, 2 and 24 h): did not have any effect
IC50 (PI3K p110β): 1.1 µM
viability at 0.01 µM ([2]; 2h): 100%
viability at 0.01 µM ([2]; 24h): 100%
viability at 0.1 µM ([2]; 2h): 99%
viability at 0.1 µM ([2]; 24h): 97%
viability at 1 µM ([2]; 2h): 99%
viability at 1 µM ([2]; 24h): 97%
viability at 10 µM ([2]; 2h): 101%
viability at 10 µM ([2]; 24h): 100%
Effect on ATP level, in words ([2]; hSC-CMs, up to the highest test concentrations): did not have any effect
activity at 0.01 µM ([3]; 2h): 87%
activity at 0.01 µM ([3]; 24h): 79%
activity at 0.1 µM ([3]; 2h): 132%
activity at 0.1 µM ([3]; 24h): 88%
activity at 1 µM ([3]; 2h): 109%
activity at 1 µM ([3]; 24h): 68%
activity at 10 µM ([3]; 2h): 102%
activity at 10 µM ([3]; 24h): 76%
Apoptosis (caspase-3/7 activation), result in words ([3]; hSC-CMs, monitored over 24 h): no effect
